We go through one compound from patent publication US20150223463A1, “SPIROCYCLIC ISOXAZOLINE DERIVATIVES FOR TREATMENT OF SEA LICE” (Zoetis LLC, priority 2012, published 2015).

This assay concerns Lepeophtheirus salmonis (sea lice). In words: Sea lice bioassay, 24 hours exposure to test compound. The format is in vivo. To be noted: predominantly pre-adult and adult stage, generally chemical resistant strain.

SMILES strings stand for the structures.

For the compound `CS(=O)(=O)CC(=O)N1CC2(C1)OCc1cc(C3=NOC(c4cc(Cl)c(F)c(Cl)c4)(C(F)(F)F)C3)ccc12` (centres unmarked) [Example 1], the “Adult Females (EC50)” value (adult female sea lice) is 0.13 ppb. The “Adult Males (EC50)” value (adult male sea lice) is 0.08 ppb.
